Experimental data: PubChem BioAssay (NCI)
Values joined by “and” are separate entries in the source; they are usually repeats but may differ in a detail not shown here. Equal entries are not always repeated.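 A five-concentration, 48-hour dose response in 96-well plates underlies each endpoint, interpolated linearly between surrounding concentrations. GI50: concentration for 50% inhibition of growth. TGI: total growth inhibition.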

Assays:
Test in all cases: growth of human tumour cells (NCI), 48 h
SK-MEL-28 melanoma = system: SK-MEL-28 melanoma
U251 CNS = system: U251 CNS
PC-3 prostate = system: PC-3 prostate
T-47D breast = system: T-47D breast
SNB-75 CNS = system: SNB-75 CNS
OVCAR-8 ovarian = system: OVCAR-8 ovarian
RPMI-8226 leukemia = system: RPMI-8226 leukemia
HCT-15 colon = system: HCT-15 colon
M14 melanoma = system: M14 melanoma
SF-268 CNS = system: SF-268 CNS
SNB-19 CNS = system: SNB-19 CNS
DU-145 prostate = system: DU-145 prostate
HL-60(TB) leukemia = system: HL-60(TB) leukemia
NCI-H522 lung = system: NCI-H522 lung
K-562 leukemia = system: K-562 leukemia
A498 renal = system: A498 renal
MOLT-4 leukemia = system: MOLT-4 leukemia
HCC-2998 colon = system: HCC-2998 colon
CCRF-CEM leukemia = system: CCRF-CEM leukemia
NCI-H460 lung = system: NCI-H460 lung
OVCAR-5 ovarian = system: OVCAR-5 ovarian
CAKI-1 renal = system: CAKI-1 renal
MCF7 breast = system: MCF7 breast
HT29 colon = system: HT29 colon
UACC-257 melanoma = system: UACC-257 melanoma
SK-MEL-2 melanoma = system: SK-MEL-2 melanoma
BT-549 breast = system: BT-549 breast
HOP-62 NSCLC = system: HOP-62 NSCLC
UO-31 renal = system: UO-31 renal
SW-620 colon = system: SW-620 colon
MDA-MB-435 = system: MDA-MB-435
TK-10 renal = system: TK-10 renal
LOX IMVI melanoma = system: LOX IMVI melanoma
ACHN renal = system: ACHN renal
COLO 205 colon = system: COLO 205 colon
HS 578T breast = system: HS 578T breast
SR leukemia = system: SR leukemia
IGROV1 ovarian = system: IGROV1 ovarian
OVCAR-4 ovarian = system: OVCAR-4 ovarian
SN12C renal = system: SN12C renal
SK-MEL-5 melanoma = system: SK-MEL-5 melanoma
NCI-H226 lung = system: NCI-H226 lung
MDA-MB-231 breast = system: MDA-MB-231 breast
NCI-H23 lung = system: NCI-H23 lung
UACC-62 melanoma = system: UACC-62 melanoma
A549 NSCLC = system: A549 NSCLC
SF-539 CNS = system: SF-539 CNS
RXF 393 renal = system: RXF 393 renal
KM12 colon = system: KM12 colon
786-0 renal = system: 786-0 renal
HOP-92 NSCLC = system: HOP-92 NSCLC
OVCAR-3 ovarian = system: OVCAR-3 ovarian
MALME-3M melanoma = system: MALME-3M melanoma
HCT-116 colon = system: HCT-116 colon
SF-295 CNS = system: SF-295 CNS
NCI/ADR-RES ovarian = system: NCI/ADR-RES ovarian
SK-OV-3 ovarian = system: SK-OV-3 ovarian

With CCCCCc1c(C)[nH]c(/C=C2\N=C(c3ccc[nH]3)C=C2OCc2ccccc2)c1C the GI50 (SK-MEL-28 melanoma) was 105 nM and 45.9 nM, the TGI (SK-MEL-28 melanoma) was 1050 nM and 267 nM and the GI50 (U251 CNS) was 28.9 nM and 23.9 nM. For the same compound, the TGI (U251 CNS) was 195 nM and 122 nM, the GI50 (PC-3 prostate) was 41.3 nM and 18.3 nM and the TGI (PC-3 prostate) was 2060 nM and 1170 nM. For the same compound, the GI50 (T-47D breast) was 44.5 nM and 31.1 nM, the TGI (T-47D breast) was 741 nM and 1010 nM and the GI50 (SNB-75 CNS) was 80.3 nM and 21.4 nM. The TGI (SNB-75 CNS) was 577 nM and 82.5 nM, the GI50 (OVCAR-8 ovarian) was 48.9 nM and 39 nM and the TGI (OVCAR-8 ovarian) was 1230 nM and 172 nM. The GI50 (RPMI-8226 leukemia) was 34.3 nM and 30.1 nM, the TGI (RPMI-8226 leukemia) was 235 nM and 317 nM and the GI50 (HCT-15 colon) was 36.8 nM and 24.6 nM. The TGI (HCT-15 colon) was 279 nM and 150 nM, the GI50 (M14 melanoma) was 29.6 nM and 25.2 nM and the TGI (M14 melanoma) was 82.3 nM and 74.8 nM. The GI50 (SF-268 CNS) was 48.8 nM and 38.5 nM, the TGI (SF-268 CNS) was 1600 nM and 1330 nM and the GI50 (SNB-19 CNS) was 210 nM and 112 nM. The TGI (SNB-19 CNS) was 1960 nM, the GI50 (DU-145 prostate) was 58.1 nM and 36.6 nM and the TGI (DU-145 prostate) was 1620 nM and 1080 nM. The GI50 (HL-60(TB) leukemia) was 62.3 nM, the TGI (HL-60(TB) leukemia) was 425 nM and the GI50 (NCI-H522 lung) was 49.5 nM and 23.7 nM. The TGI (NCI-H522 lung) was 719 nM and 262 nM, the GI50 (K-562 leukemia) was 37.2 nM and 44.8 nM and the GI50 (A498 renal) was 41.1 nM and 29.8 nM. The TGI (A498 renal) was 740 nM and 219 nM, the GI50 (MOLT-4 leukemia) was 36.5 nM and 40.2 nM and the TGI (MOLT-4 leukemia) was 1330 nM and 7140 nM. For the same compound, the GI50 (HCC-2998 colon) was 41.9 nM and 38 nM, the TGI (HCC-2998 colon) was 1700 nM and 1240 nM and the GI50 (CCRF-CEM leukemia) was 26.1 nM and 16.2 nM. The GI50 (NCI-H460 lung) was 42.3 nM and 31 nM, the TGI (NCI-H460 lung) was 1420 nM and 1160 nM and the GI50 (OVCAR-5 ovarian) was 70.1 nM and 47.3 nM. The TGI (OVCAR-5 ovarian) was 2310 nM and 1630 nM, the GI50 (CAKI-1 renal) was 49.8 nM and 26.9 nM and the GI50 (MCF7 breast) was 39.5 nM and 36.1 nM. The TGI (MCF7 breast) was 859 nM and 1060 nM, the GI50 (HT29 colon) was 31.4 nM and 19.6 nM and the TGI (HT29 colon) was 1220 nM. The GI50 (UACC-257 melanoma) was 191 nM and 76.7 nM, the TGI (UACC-257 melanoma) was 1530 nM and 668 nM and the GI50 (SK-MEL-2 melanoma) was 29.7 nM and 20.5 nM. The TGI (SK-MEL-2 melanoma) was 75.3 nM and 60.9 nM, the GI50 (BT-549 breast) was 234 nM and 119 nM and the TGI (BT-549 breast) was 1780 nM and 1180 nM. For the same compound, the GI50 (HOP-62 NSCLC) was 164 nM and 92.5 nM, the TGI (HOP-62 NSCLC) was 1890 nM and 1370 nM and the GI50 (UO-31 renal) was 103 nM and 31.8 nM. For the same compound, the TGI (UO-31 renal) was 282 nM and 128 nM, the GI50 (SW-620 colon) was 36.9 nM and 29.5 nM and the TGI (SW-620 colon) was 1210 nM and 322 nM. For the same compound, the GI50 (MDA-MB-435) was 36.7 nM and 32.4 nM, the TGI (MDA-MB-435) was 296 nM and 134 nM and the GI50 (TK-10 renal) was 47.5 nM and 41.8 nM. For the same compound, the TGI (TK-10 renal) was 1010 nM and 471 nM, the GI50 (LOX IMVI melanoma) was 19.5 nM and 11.7 nM and the TGI (LOX IMVI melanoma) was 45.8 nM and 37.7 nM. For the same compound, the GI50 (ACHN renal) was 51.4 nM and 32.4 nM, the TGI (ACHN renal) was 941 nM and 750 nM and the GI50 (COLO 205 colon) was 43.6 nM and 26 nM. The TGI (COLO 205 colon) was 661 nM and 159 nM, the GI50 (HS 578T breast) was 96.2 nM and 27.7 nM and the TGI (HS 578T breast) was 697 nM and 238 nM. The GI50 (SR leukemia) was 22.6 nM and 25 nM, the GI50 (IGROV1 ovarian) was 161 nM and 59.6 nM and the TGI (IGROV1 ovarian) was 1790 nM and 1400 nM. For the same compound, the GI50 (OVCAR-4 ovarian) was 46.3 nM and 16.3 nM, the TGI (OVCAR-4 ovarian) was 1290 nM and 1240 nM and the GI50 (SN12C renal) was 70.3 nM and 45.8 nM. For the same compound, the TGI (SN12C renal) was 1430 nM and 268 nM, the GI50 (SK-MEL-5 melanoma) was 35.8 nM and 18.6 nM and the TGI (SK-MEL-5 melanoma) was 138 nM and 47.1 nM. The GI50 (NCI-H226 lung) was 74.8 nM and 201 nM, the TGI (NCI-H226 lung) was 1650 nM and 2030 nM and the GI50 (MDA-MB-231 breast) was 24.4 nM. For the same compound, the TGI (MDA-MB-231 breast) was 257 nM and 76.8 nM, the GI50 (NCI-H23 lung) was 116 nM and 56.3 nM and the TGI (NCI-H23 lung) was 2230 nM and 627 nM. The GI50 (UACC-62 melanoma) was 23 nM, the TGI (UACC-62 melanoma) was 53.8 nM and 50.6 nM and the GI50 (A549 NSCLC) was 32.8 nM and 28.3 nM. The TGI (A549 NSCLC) was 381 nM and 95.7 nM, the GI50 (SF-539 CNS) was 66.8 nM and 49.2 nM and the TGI (SF-539 CNS) was 1080 nM and 263 nM. For the same compound, the GI50 (RXF 393 renal) was 69.7 nM and 47.3 nM, the TGI (RXF 393 renal) was 768 nM and 374 nM and the GI50 (KM12 colon) was 35.2 nM and 24.6 nM. For the same compound, the TGI (KM12 colon) was 1040 nM and 262 nM, the GI50 (786-0 renal) was 52 nM and 34.8 nM and the TGI (786-0 renal) was 378 nM and 226 nM. For the same compound, the GI50 (HOP-92 NSCLC) was 8.32 nM and 18.7 nM, the TGI (HOP-92 NSCLC) was 56.2 nM and 64.7 nM and the GI50 (OVCAR-3 ovarian) was 44.7 nM and 26.4 nM. The TGI (OVCAR-3 ovarian) was 463 nM and 139 nM, the GI50 (MALME-3M melanoma) was 116 nM and 58.5 nM and the TGI (MALME-3M melanoma) was 494 nM and 209 nM. For the same compound, the GI50 (HCT-116 colon) was 34.3 nM and 18.6 nM, the TGI (HCT-116 colon) was 189 nM and 133 nM and the GI50 (SF-295 CNS) was 68.9 nM and 43.1 nM. For the same compound, the TGI (SF-295 CNS) was 337 nM and 292 nM, the GI50 (NCI/ADR-RES ovarian) was 255 nM and 77.6 nM and the TGI (NCI/ADR-RES ovarian) was 1460 nM and 761 nM. The GI50 (SK-OV-3 ovarian) was 326 nM and 97.8 nM and the TGI (SK-OV-3 ovarian) was 2480 nM and 983 nM.
